Measured values reported in patent publication US20100076015A1, “Aminopyridine Derivatives” (VANTIA LIMITED, priority 2008, published 2010).

Molecular target: T1, Human KLK1 (Homo sapiens, UniProt P06870)
T1 construct: purchased Callbiochem (Calbiochem)
Assay: Determination of the IC50 for KLK1 (fluorogenic substrate H-DVal-Leu-Arg-AFC)
Type: biochemical
Conditions: 37° C.
Summary of the method: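 hKLK1 + H-DVal-Leu-Arg-AFC, 37° C, varied cpd conc. Initial rate by A410 change → residual activity → IC50.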

T1 sequence (P06870 25-262): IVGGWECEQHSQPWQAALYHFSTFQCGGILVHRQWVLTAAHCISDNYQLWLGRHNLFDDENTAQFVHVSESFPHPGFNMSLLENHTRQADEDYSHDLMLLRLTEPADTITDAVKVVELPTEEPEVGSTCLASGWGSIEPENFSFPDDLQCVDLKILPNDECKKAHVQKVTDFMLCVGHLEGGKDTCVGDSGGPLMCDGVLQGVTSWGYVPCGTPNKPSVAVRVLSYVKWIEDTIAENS

Compound	IC50 [nM]
Cc1c[nH]c(C(=O)N[C@@H](Cc2ccc(F)cc2)C(=O)NCc2ccc(N)nc2)c1 [Example 260, 4-Methyl-1H-pyrrole-2-carboxylic acid [(S)-1-[(6-amino-pyridin-3-ylmethyl)-carbamoyl]-2-(4-fluoro-phenyl)-ethyl]-amide]	150
CCN(C)[C@@H](C)C(=O)N[C@@H](Cc1ccc(F)cc1)C(=O)NCc1ccc(N)nc1 [Example 367, (S)—N-[(S)-1-[(6-Amino-pyridin-3-ylmethyl)-carbamoyl]-2-(4-fluoro-phenyl)-ethyl]-2-(ethyl-methyl-amino)-propionamide]	10.8
Cc1cc[nH]c1C(=O)N[C@@H](Cc1ccccc1Cl)C(=O)NCc1ccc(N)nc1 [Example 262, 3-Methyl-1H-pyrrole-2-carboxylic acid [(S)-1-[(6-amino-pyridin-3-ylmethyl)-carbamoyl]-2-(2-chloro-phenyl)-ethyl]-amide]	28.3
CCC(C)[C@@H](N)C(=O)N[C@@H](Cc1ccc(Cl)cc1)C(=O)NCc1ccc(N)nc1 (stereo partly drawn) [Example 36, (R)-2-Amino-3-methyl-pentanoic acid [(S)-1-[(6-amino-pyridin-3-ylmethyl)-carbamoyl]-2-(4-chloro-phenyl)-ethyl]-amide]	1.6
COc1ccc2[nH]c(C(=O)N[C@@H](Cc3ccc(F)c(F)c3)C(=O)NCc3ccc(N)nc3)cc2c1 [Example 327, 5-Methoxy-1H-indole-2-carboxylic acid [(S)-1-[(6-amino-pyridin-3-ylmethyl)-carbamoyl]-2-(3,4-difluoro-phenyl)-ethyl]-amide]	17.8
CC(C)N(C)[C@@H](Cc1ccccc1)C(=O)N[C@@H](Cc1ccc(F)cc1)C(=O)NCc1ccc(N)nc1 [Example 373, (S)—N-[(S)-1-[(6-Amino-pyridin-3-ylmethyl)-carbamoyl]-2-(4-fluoro-phenyl)-ethyl]-2-(isopropyl-methyl-amino)-3-phenyl-propionamide]	25.7
Nc1ccc(CNC(=O)[C@H](Cc2ccc(Cl)c(Cl)c2)NC(=O)[C@H]2Cc3ccccc3CN2)cn1 [Example 64, (R)-1,2,3,4-Tetrahydro-isoquinoline-3-carboxylic acid [(S)-1-[(6-amino-pyridin-3-ylmethyl)-carbamoyl]-2-(3,4-dichloro-phenyl)-ethyl]-amide]	3.1
CC(C)N(C)[C@H](C)C(=O)N[C@@H](Cc1ccc(F)c(F)c1)C(=O)NCc1ccc(N)nc1 [Example 175, (R)—N-[(S)-1-[(6-Amino-pyridin-3-ylmethyl)-carbamoyl]-2-(3,4-difluoro-phenyl)-ethyl]-2-(isopropyl-methyl-amino)-propionamide]	2
CCC(C)[C@@H](C(=O)N[C@@H](Cc1ccc(F)c(F)c1)C(=O)NCc1ccc(N)nc1)N(C)C(C)C (stereo partly drawn) [Example 353, (S)-2-(Isopropyl-methyl-amino)-3-methyl-pentanoic acid [(S)-1-[(6-amino-pyridin-3-ylmethyl)-carbamoyl]-2-(3,4-difluoro-phenyl)-ethyl]-amide]	7.8
Nc1ccc(CNC(=O)[C@H](Cc2cccc3ccccc23)NC(=O)c2cc3cc(O)ccc3[nH]2)cn1 [Example 302, 5-Hydroxy-1H-indole-2-carboxylic acid {(S)-1-[(6-amino-pyridin-3-ylmethyl)-carbamoyl]-2-naphthalen-1-yl-ethyl}-amide]	7.2

Results, then the compound that gave them:

IC50 [nM]	Compound
34	CN1CCC[C@@H]1C(=O)N[C@@H](Cc1ccccc1F)C(=O)NCc1ccc(N)nc1 [Example 108, (R)-1-Methyl-pyrrolidine-2-carboxylic acid [(S)-1-[(6-amino-pyridin-3-ylmethyl)-carbamoyl]-2-(2-fluoro-phenyl)-ethyl]-amide]
0.38	(R)—N-[(S)-1-[(6-Amino-pyridin-3-ylmethyl)-carbamoyl]-2-(3,4-dichloro-phenyl)-ethyl]-3-methyl-2-methylamino-butyramide [Example 340]
1.5	Cc1cc(C)c(C(=O)N[C@@H](Cc2ccccc2C(F)(F)F)C(=O)NCc2ccc(N)nc2)[nH]1 [Example 240, 3,5-Dimethyl-1H-pyrrole-2-carboxylic acid [(S)-1-[(6-amino-pyridin-3-ylmethyl)-carbamoyl]-2-(2-trifluoromethyl-phenyl)-ethyl]-amide]
36.8	CN1Cc2ccccc2C[C@@H]1C(=O)N[C@@H](Cc1ccc(F)c(F)c1)C(=O)NCc1ccc(N)nc1 [Example 149, (R)-2-Methyl-1,2,3,4-tetrahydro-isoquinoline-3-carboxylic acid [(S)-1-[(6-amino-pyridin-3-ylmethyl)-carbamoyl]-2-(3,4-difluoro-phenyl)-ethyl]-amide]
3.1	CCC(C)[C@@H](NC)C(=O)N[C@@H](Cc1cccc(Cl)c1)C(=O)NCc1ccc(N)nc1 (stereo partly drawn) [Example 45, (R)-3-Methyl-2-methylamino-pentanoic acid [(S)-1-[(6-amino-pyridin-3-ylmethyl)-carbamoyl]-2-(3-chloro-phenyl)-ethyl]-amide]
10.3	Cc1cc[nH]c1C(=O)N[C@@H](Cc1ccc(C(F)(F)F)cc1)C(=O)NCc1ccc(N)nc1 [Example 258, 3-Methyl-1H-pyrrole-2-carboxylic acid [(S)-1-[(6-amino-pyridin-3-ylmethyl)-carbamoyl]-2-(4-trifluoromethyl-phenyl)-ethyl]-amide]
1.4	CCC(C)[C@@H](NC)C(=O)N[C@@H](Cc1cccc(C(F)(F)F)c1)C(=O)NCc1ccc(N)nc1 (stereo partly drawn) [Example 42, (R)-3-Methyl-2-methylamino-pentanoic acid [(S)-1-[(6-amino-pyridin-3-ylmethyl)-carbamoyl]-2-(3-trifluoromethyl-phenyl)-ethyl]-amide]
5	CC(C)[C@H](C(=O)N[C@@H](Cc1ccc(F)c(F)c1)C(=O)NCc1ccc(N)nc1)N(C)C [Example 359, (R)—N-[(S)-1-[(6-Amino-pyridin-3-ylmethyl)-carbamoyl]-2-(3,4-difluoro-phenyl)-ethyl]-2-dimethylamino-3-methyl-butyramide]
114	CCCN(CCC)CC(=O)N[C@@H](Cc1ccc(F)c(F)c1)C(=O)NCc1ccc(N)nc1 [Example 158, (S)—N-(6-Amino-pyridin-3-ylmethyl)-3-(3,4-difluoro-phenyl)-2-(2-dipropylamino-acetylamino)-propionamide]
5.9	Cc1nc(N)ccc1CNC(=O)[C@H](Cc1ccc(F)cc1)NC(=O)[C@H]1CCCN1C [Example 204, (R)-1-Methyl-pyrrolidine-2-carboxylic acid [(S)-1-[(6-amino-2-methyl-pyridin-3-ylmethyl)-carbamoyl]-2-(4-fluoro-phenyl)-ethyl]-amide]
67.4	C[C@H](C(=O)N[C@@H](Cc1ccc(C(F)(F)F)cc1)C(=O)NCc1ccc(N)nc1)N1CCCCC1 [Example 421, (R)—N-[(S)-1-[(6-Amino-pyridin-3-ylmethyl)-carbamoyl]-2-(4-trifluoromethyl-phenyl)-ethyl]-2-piperidin-1-yl-propionamide]
258	CCCCN(C)CC(=O)N[C@@H](Cc1ccc(F)c(F)c1)C(=O)NCc1ccc(N)nc1 [Example 167, (S)—N-(6-Amino-pyridin-3-ylmethyl)-2-[2-(butyl-methyl-amino)-acetylamino]-3-(3,4-difluoro-phenyl)-propionamide]
68.6	Cc1nc(N)ccc1CNC(=O)[C@@H](Cc1cccc(Cl)c1)NC(=O)c1cc2ccccc2[nH]1 [Example 315, 1H-Indole-2-carboxylic acid [(R)-1-[(6-amino-2-methyl-pyridin-3-ylmethyl)-carbamoyl]-2-(3-chloro-phenyl)-ethyl]-amide]
